The record followed here is patent US11667634B2, “Inhibitors of RAF kinases” (Kinnate Biopharma Inc., priority 2019, dated 2023).

The target in the experiment is human RAF1 (Homo sapiens (Human), UniProt P04049). Kind of experiment: Protein kinase assay (radiometric 33P-ATP, MEK1 (K97R) substrate). It counts as biochemical. The note with it: substrate human MEK1 (K97R) 3 micromolar, ATP 10 micromolar, 3-fold dilution from 10 micromolar, read-out: RAF-1 IC50. As to the method: Protein kinase assay: Assay platform was used to measure kinase/inhibitor interactions as described previously (Anastassiadis et al., 2011). In brief, for each reaction, kinase and substrate were mixed in a buffer containing 20 mM HEPES (pH 7.5), 10 mM MgCl2, 1 mM EGTA, 0.02% Brij35, 0.02 mg/mL BSA, 0.1 mM Na3VO4, 2 mM DTT, and 1% DMSO. All compounds were solubilized in DMSO. Compounds were then added to each reaction mixture via acoustic dispense using an ECHO 550 nanoliter dispenser. For human RAF1 testing, human MEK1 (K97R) was used as a substrate at a concentration of 3 micromolar, with a final ATP concentration of 10 micromolar. For human BRAF testing, human MEK1 (K97R) was used as a substrate at 1 micromolar concentration, with a final ATP concentration of 25 micromolar. […] After a 20-min incubation, ATP (Sigma-Aldrich, St. Louis, Mo. 63178) and [g33P] ATP (specific activity 10 microCi/microliter) purchased at PerkinElmer (Boston, Mass., 02118 Cat #BLU 003H250UC) were added at a final total concentration of 10 mM. Reactions were carried out at room temperature for 2 hr and spotted onto P81 ion exchange cellulose chromatography paper (Reaction Biology). Filter paper was washed in 0.75% phosphoric acid to remove unincorporated ATP. The percent remaining kinase activity relative to a vehicle-containing (DMSO) kinase reaction was calculated for each kinase/inhibitor pair. IC50 values were calculated using Prism 5 (GraphPad).
Sequence of human RAF1 (P04049 whole entry): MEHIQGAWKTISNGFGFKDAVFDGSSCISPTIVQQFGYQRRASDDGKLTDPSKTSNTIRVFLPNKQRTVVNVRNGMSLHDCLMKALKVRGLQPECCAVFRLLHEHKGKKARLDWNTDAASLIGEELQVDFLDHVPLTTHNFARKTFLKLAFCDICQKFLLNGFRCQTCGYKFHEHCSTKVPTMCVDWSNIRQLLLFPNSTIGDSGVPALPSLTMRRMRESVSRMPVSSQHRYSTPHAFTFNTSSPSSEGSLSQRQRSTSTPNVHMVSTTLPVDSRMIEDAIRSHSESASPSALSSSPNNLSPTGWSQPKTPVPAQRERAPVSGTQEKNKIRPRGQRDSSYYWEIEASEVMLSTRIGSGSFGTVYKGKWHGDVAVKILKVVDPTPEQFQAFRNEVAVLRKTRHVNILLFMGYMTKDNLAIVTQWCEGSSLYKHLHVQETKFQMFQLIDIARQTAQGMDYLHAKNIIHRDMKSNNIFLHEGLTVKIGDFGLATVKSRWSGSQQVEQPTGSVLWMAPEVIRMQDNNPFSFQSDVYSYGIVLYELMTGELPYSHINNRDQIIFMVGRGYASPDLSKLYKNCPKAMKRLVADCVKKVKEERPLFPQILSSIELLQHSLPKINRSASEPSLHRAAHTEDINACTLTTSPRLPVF
One may read the IC50 as the concentration needed to halve the response being measured. `CNc1ncc2cc(-c3cc(NC(=O)N4CCOC(C(F)(F)F)C4)ccc3C)cnc2n1` (stereo in doubt) [Example 58, (2S)-N-[4-methyl-3-2-(methylamino)pyrido[2,3-d]pyrimidin-6-yl]phenyl]-2-(trifluoromethyl)morpholine-4-carboxamide]: the IC50 is at most 10 nM. For `CNc1ncc2cc(-c3cc(NC(=O)N4CC[C@H](OC(F)F)C4)c(F)cc3C)cnc2n1` [Example 28, (S)-3-(difluoromethoxy)-N-(2-fluoro-4-methyl-5-(2-(methylamino)pyrido[2,3-d]pyrimidin-6-yl)phenyl)pyrrolidine-1-carboxamide] the value was at most 10 nM; for `C#Cc1nc2nc(NC)ncc2cc1-c1cc(NC(=O)c2ccnc(C(F)(F)F)c2)ccc1C` [Example 67, N-[3-[7-ethynyl-2-(methylamino)pyrido[2,3-d]pyrimidin-6-yl]-4-methylphenyl]-2-(trifluoromethyl)pyridine-4-carboxamide], at most 10 nM.
